Earlier results on two molecules are cited in US9403813B2, “Azetidine amide derivatives as orexin receptor antagonists” (ACTELION PHARMACEUTICALS LTD, priority 2013, dated 2016).

In series [1] the test system is rats. As to conditions: fasted hungry rats exposed to food odors; cited from earlier work.
Series [2] deals with rats. As to conditions: cited from earlier work.
The test system of series [3] is rat. As to conditions: cited from earlier work.
The test system of series [4] is rats. As to conditions: rats treated with the compound; cited from earlier work.
For series [5], the system named is rat. As to conditions: cited from earlier work. The source holds these as a separate data set.
Series [6] deals with amyloid precursor protein transgenic mice. As to conditions: after acute sleep restriction, APP transgenic mice; cited from earlier work.
For the next series, the system named is mouse. As to conditions: administered chronically; cited from earlier work.
In series [7] the test system is rat. As to conditions: cited from earlier work. This is another data set of the same source.
A further series concerns humans. As to conditions: primary insomnia; cited from earlier work.
The test system of series [8] is rodents. As to conditions: cited from earlier work.
Series [9] relates to rodents. As to conditions: cited from earlier work. This is another data set of the same source.

With `CNC(=O)[C@@H](c1ccccc1)N1CCc2cc(OC)c(OC)cc2[C@@H]1CCc1ccc(C(F)(F)F)cc1` [(2R)-2-{(1S)-6,7-dimethoxy-1-[2-(4-trifluoromethyl-phenyl)-ethyl]-3,4-dihydro-1H-isoquinolin-2-yl}-N-methyl-2-phenyl-acetamide], the “natural activation induced by orexin A” value in the series with rats [1] is recorded as “attenuate the natural activation induced by orexin A”. For the same molecule, the “cardiovascular responses to conditioned fear and novelty exposure” value in the series on rats [2] is listed as “attenuated cardiovascular responses”. Besides, the “activity in fear-potentiated startle paradigm” value with rat [3] is “active”. The learning and memory entry in the series on rats [4] was “intact declarative and non-declarative learning and memory”. In addition, the “activity in nicotine self-administration” value in the series on rat [5] is “displayed pharmacological activity”. Moreover, the “brain levels of amyloid-beta and plaque deposition” value in [6] was “decreased brain levels of amyloid-beta (Aβ) as well as Aβ plaque deposition”. For the same molecule, the antidepressant-like activity entry in the series on mouse is “induce antidepressant-like activity”. In the series on rat [7], the “alertness (active wake and locomotion)” value was “decrease alertness”; the “time spent in REM and NREM sleep” value was “dose-dependently increase the time spent in both REM and NREM sleep”. In addition, the clinical efficacy result in the series with humans is given as “showed clinical efficacy”.

Consider `Cn1c(SCC(=O)N2CCC[C@H]2C(=O)Nc2ccccc2-c2ccccc2)nc2ccccc21` [N-Biphenyl-2-yl-1-{[(1-methyl-1H-benzimidazol-2-yl)sulfanyl]acetyl}-L-prolinamide], for which the “nicotine-reinstatement for a conditioned reinforcer” value with rodents [8] is reported as “inhibited nicotine-reinstatement for a conditioned reinforcer”. Also, in the series with rodents [9], the “behavioral and molecular changes induced by repeated amphetamine” value is “reduced behavioral (locomotor sensitization) and molecular (transcriptional responses) changes”.
